The test system of the test is CD2F1 mice, L1210 leukemia ip, survival T/C. Nature of the test: NCI In Vivo Anticancer Drug Screen. Data for tumor model L1210 Leukemia (intraperitoneal) in CD2F1 (CDF1) mice. The note with it: higher = longer survival. In outline: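 Vehicle-treated tumor-bearing mice served as controls (C) for compound-treated mice (T). Reported figure is T divided by C.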
Setting [1] is: endpoint: mean survival time, dose: 100.0 mg/kg/injection, schedule: Q01DX001 (ip), vehicle: saline with Tween-80.
Where [2] appears, read: endpoint: mean survival time, dose: 200.0 mg/kg/injection, schedule: Q01DX001 (ip), vehicle: saline with Tween-80.
The mark [3] stands for this setting: endpoint: mean survival time, dose: 400.0 mg/kg/injection, schedule: Q01DX001 (ip), vehicle: saline with Tween-80.
The mark [4] stands for this setting: endpoint: mean survival time, dose: 100.0 mg/kg/injection, schedule: Q01DX009 (ip), vehicle: saline with Tween-80.
The mark [5] stands for this setting: endpoint: mean survival time, dose: 100.0 mg/kg/injection, schedule: Q04DX003 (ip), vehicle: saline with Tween-80.
Where [6] appears, read: endpoint: mean survival time, dose: 200.0 mg/kg/injection, schedule: Q01DX009 (ip), vehicle: saline with Tween-80.
[7] abbreviates: endpoint: mean survival time, dose: 100.0 mg/kg/injection, schedule: Q01DX001 (ip), vehicle: saline.
[8] abbreviates: endpoint: mean survival time, dose: 200.0 mg/kg/injection, schedule: Q01DX001 (ip), vehicle: saline.
Setting [9] is: endpoint: mean survival time, dose: 400.0 mg/kg/injection, schedule: Q01DX001 (ip), vehicle: saline.
[10] abbreviates: endpoint: mean survival time, dose: 100.0 mg/kg/injection, schedule: Q04DX003 (ip), vehicle: saline.
[11] abbreviates: endpoint: mean survival time, dose: 200.0 mg/kg/injection, schedule: Q04DX003 (ip), vehicle: saline.
Setting [12] is: endpoint: mean survival time, dose: 400.0 mg/kg/injection, schedule: Q01DX009 (ip), vehicle: saline with Tween-80.

Structures are written as SMILES. “And” between values parts separate entries of the source, which are not always exact repeats. Equal values may be shown once. Inconclusive results and toxic doses are left out.

The source of these data is PubChem BioAssay AID256 (DTP/NCI, 2004).

With `CCCCC(=O)Nc1ccc(Cl)cc1`, the T/C reads like this: under setting [1], 101 % of control; under setting [2], 95 % of control; under setting [3], 106 % of control.
For `CCOC1C=CCCC1` (stereo unspecified), the T/C is 95 % of control under setting [4]; 97 % of control under setting [5]; 95 % of control under setting [6]; 93 % of control (endpoint: mean survival time, dose: 200.0 mg/kg/injection, schedule: Q04DX003 (ip), vehicle: saline with Tween-80); 97 % of control (endpoint: mean survival time, dose: 400.0 mg/kg/injection, schedule: Q04DX003 (ip), vehicle: saline with Tween-80).
As to `O=S1(=O)CCCN1c1ccccc1`, the T/C under setting [7] is 100 % of control, the T/C under setting [8] is 106 % of control and the T/C under setting [9] was 103 % of control.
Turning to `CC[O+](CC)CC`, the T/C runs as follows: (endpoint: mean survival time, dose: 12.5 mg/kg/injection, schedule: Q04DX002 (ip), vehicle: saline) 95 % of control; (endpoint: mean survival time, dose: 25.0 mg/kg/injection, schedule: Q04DX002 (ip), vehicle: saline) 91 % of control; (endpoint: mean survival time, dose: 50.0 mg/kg/injection, schedule: Q04DX002 (ip), vehicle: saline) 95 % of control.
With `Oc1c(Cl)cc(Cl)cc1C=NCCSc1ccc(Cl)cc1`, the T/C (endpoint: median survival time, dose: 25.0 mg/kg/injection, schedule: Q01DX009 (ip), vehicle: Klucel (hydroxypropylcellulose) (HPC)) was 112 % of control; the T/C (endpoint: median survival time, dose: 50.0 mg/kg/injection, schedule: Q01DX009 (ip), vehicle: Klucel (hydroxypropylcellulose) (HPC)) is 101 % of control; the T/C (endpoint: median survival time, dose: 100.0 mg/kg/injection, schedule: Q01DX009 (ip), vehicle: Klucel (hydroxypropylcellulose) (HPC)) is 97 % of control; the T/C (endpoint: median survival time, dose: 200.0 mg/kg/injection, schedule: Q01DX009 (ip), vehicle: Klucel (hydroxypropylcellulose) (HPC)) is 100 % of control.
For the compound `CCC1([N+](=O)[O-])COC(c2ccc(Cl)cc2)OC1` (stereo unspecified), the T/C runs as follows: (endpoint: mean survival time, dose: 100.0 mg/kg/injection, schedule: Q01DX001 (ip), vehicle: Klucel (hydroxypropylcellulose) (HPC)) 104 % of control; (endpoint: mean survival time, dose: 200.0 mg/kg/injection, schedule: Q01DX001 (ip), vehicle: Klucel (hydroxypropylcellulose) (HPC)) 86 % of control; (endpoint: mean survival time, dose: 400.0 mg/kg/injection, schedule: Q01DX001 (ip), vehicle: Klucel (hydroxypropylcellulose) (HPC)) 111 % of control.
Take `OC1CCCC(O)C1O` (stereo unspecified): the T/C is 101 % of control under setting [10]; 97 % of control under setting [11]; 101 % of control (endpoint: mean survival time, dose: 400.0 mg/kg/injection, schedule: Q04DX003 (ip), vehicle: saline).
Consider `O=c1[nH]cc(Oc2ccccc2)c(=O)[nH]1`, for which the T/C was 104 % of control (endpoint: mean survival time, dose: 50.0 mg/kg/injection, schedule: Q01DX001 (ip), vehicle: saline with Tween-80); 96 % of control under setting [1]; 98 % of control under setting [2].
In the case of `NC1=C(Cl)C(=O)c2ccccc2C1=O`, the T/C under setting [5] was 102 % of control.
In the case of `CN(C)S(=O)(=O)Oc1ccccc1[N+](=O)[O-]`, the T/C reads like this: under setting [4], 100 % of control; under setting [6], 97 % of control; under setting [12], 98 % of control.
`COc1cc(Cl)ccc1NC(=O)OCCOc1ccc(Br)cc1`: the T/C by setting is: (endpoint: mean survival time, dose: 12.5 mg/kg/injection, schedule: Q01DX009 (ip), vehicle: saline with Tween-80) 91 % of control; (endpoint: mean survival time, dose: 25.0 mg/kg/injection, schedule: Q01DX009 (ip), vehicle: saline with Tween-80) 87 % of control; (endpoint: mean survival time, dose: 50.0 mg/kg/injection, schedule: Q01DX009 (ip), vehicle: saline with Tween-80) 119 % of control and 91 % of control.
For `Cc1cc(C)cc(C(C)(C)C)c1`, the T/C under setting [4] was 96 % of control and the T/C under setting [6] is 102 % of control.
Regarding `CN(C)CC(C)(C)C(=O)c1ccc(Cl)cc1`, the T/C by setting is: (endpoint: mean survival time, dose: 100.0 mg/kg/injection, schedule: Q04DX002 (ip), vehicle: saline) 93 % of control; (endpoint: mean survival time, dose: 200.0 mg/kg/injection, schedule: Q04DX002 (ip), vehicle: saline) 89 % of control.
For `COC(=O)C1C2CC(=O)C(C2)C1C(=O)OC` (stereo unspecified), the T/C by setting is: under setting [4], 93 % of control; under setting [6], 99 % of control; under setting [12], 93 % of control.
With `CCOC(=O)C1=NN(c2ccccc2)C(=O)C1`, the T/C under setting [4] is 94 % of control, the T/C under setting [6] is 94 % of control and the T/C under setting [12] was 92 % of control.
For `OCC1OC(n2cnc3cc(Cl)c(Cl)cc32)C(O)C1O` (stereo unspecified), the T/C runs as follows: (endpoint: median survival time, dose: 25.0 mg/kg/injection, schedule: Q01DX009 (ip), vehicle: saline with Tween-80) 97 % of control and 103 % of control; (endpoint: median survival time, dose: 50.0 mg/kg/injection, schedule: Q01DX009 (ip), vehicle: saline with Tween-80) 106 % of control; (endpoint: median survival time, dose: 100.0 mg/kg/injection, schedule: Q01DX009 (ip), vehicle: saline with Tween-80) 120 % of control and 110 % of control and 112 % of control; (endpoint: median survival time, dose: 200.0 mg/kg/injection, schedule: Q01DX009 (ip), vehicle: saline with Tween-80) 120 % of control.
On to `CCN(CC)c1ccc2cc(-c3nc4ccccc4n3C)c(=O)oc2c1`, for which the T/C is 90 % of control (endpoint: mean survival time, dose: 3.13 mg/kg/injection, schedule: Q01DX009 (ip), vehicle: Klucel (hydroxypropylcellulose) (HPC)); 91 % of control and 93 % of control and 96 % of control (endpoint: mean survival time, dose: 6.25 mg/kg/injection, schedule: Q01DX009 (ip), vehicle: Klucel (hydroxypropylcellulose) (HPC)); 93 % of control and 96 % of control and 103 % of control (endpoint: mean survival time, dose: 12.5 mg/kg/injection, schedule: Q01DX009 (ip), vehicle: Klucel (hydroxypropylcellulose) (HPC)); 120 % of control and 121 % of control and 103 % of control (endpoint: mean survival time, dose: 50.0 mg/kg/injection, schedule: Q01DX009 (ip), vehicle: Klucel (hydroxypropylcellulose) (HPC)).
With `NC(=O)c1ccccc1C(=O)O`, the T/C runs as follows: under setting [7], 105 % of control; under setting [8], 102 % of control; under setting [9], 94 % of control.
In the case of `O=C1C(NCC(O)CO)=C(N2CC2)C(=O)C(NCC(O)CO)=C1N1CC1` (stereo unspecified), the T/C by setting is: (endpoint: mean survival time, dose: 1.25 mg/kg/injection, schedule: Q01DX009 (oral), vehicle: saline) 91 % of control and 103 % of control; (endpoint: mean survival time, dose: 2.5 mg/kg/injection, schedule: Q01DX009 (oral), vehicle: saline) 98 % of control; (endpoint: mean survival time, dose: 10.0 mg/kg/injection, schedule: Q01DX009 (oral), vehicle: saline) 109 % of control; (endpoint: mean survival time, dose: 20.0 mg/kg/injection, schedule: Q01DX009 (oral), vehicle: saline) 104 % of control and 105 % of control; (endpoint: median survival time, dose: 0.5 mg/kg/injection, schedule: Q01DX009 (ip), vehicle: saline) 123 % of control; (endpoint: median survival time, dose: 2.0 mg/kg/injection, schedule: Q01DX009 (ip), vehicle: saline) 163 % of control. Further, the T/C was 228 % of control (endpoint: median survival time, dose: 4.0 mg/kg/injection, schedule: Q01DX009 (ip), vehicle: saline) and 195 % of control (endpoint: median survival time, dose: 8.0 mg/kg/injection, schedule: Q01DX009 (ip), vehicle: saline).
For the compound `CCCCCCCCCCCC(O)CCCCC` (stereo unspecified), the T/C runs as follows: (endpoint: mean survival time, dose: 100.0 mg/kg/injection, schedule: Q01DX009 (ip), vehicle: other) 95 % of control; (endpoint: mean survival time, dose: 100.0 mg/kg/injection, schedule: Q04DX003 (ip), vehicle: other) 91 % of control; (endpoint: mean survival time, dose: 200.0 mg/kg/injection, schedule: Q01DX009 (ip), vehicle: other) 91 % of control; (endpoint: mean survival time, dose: 200.0 mg/kg/injection, schedule: Q04DX003 (ip), vehicle: other) 103 % of control; (endpoint: mean survival time, dose: 400.0 mg/kg/injection, schedule: Q01DX009 (ip), vehicle: other) 98 % of control; (endpoint: mean survival time, dose: 400.0 mg/kg/injection, schedule: Q04DX003 (ip), vehicle: other) 96 % of control.
For `COC1OC2COc3ccccc3OC2C(NC(=O)Oc2ccccc2)C1O` (stereo unspecified), the T/C by setting is: under setting [1], 94 % of control; under setting [2], 94 % of control; under setting [3], 91 % of control.
In the case of `CCN(CC)C(=O)N1CCN(c2ccccc2)CC1`, the T/C is, setting by setting: under setting [10], 98 % of control; under setting [11], 93 % of control.
As to `COP1(=S)OCC2OC(n3cc(C)c(=O)[nH]c3=O)CC2O1` (stereo unspecified), the T/C was 101 % of control (endpoint: mean survival time, dose: 12.5 mg/kg/injection, schedule: Q01DX005 (ip), vehicle: distilled water + Tween-80); 102 % of control (endpoint: mean survival time, dose: 25.0 mg/kg/injection, schedule: Q01DX005 (ip), vehicle: distilled water + Tween-80); 102 % of control (endpoint: mean survival time, dose: 50.0 mg/kg/injection, schedule: Q01DX005 (ip), vehicle: distilled water + Tween-80); 102 % of control (endpoint: mean survival time, dose: 100.0 mg/kg/injection, schedule: Q01DX005 (ip), vehicle: distilled water + Tween-80); 98 % of control (endpoint: mean survival time, dose: 200.0 mg/kg/injection, schedule: Q01DX005 (ip), vehicle: distilled water + Tween-80).
Turning to `S=c1nc(-c2ccccc2)c(-c2ccccc2)n[nH]1`, the T/C was 93 % of control (endpoint: mean survival time, dose: 75.0 mg/kg/injection, schedule: Q01DX009 (ip), vehicle: saline) and 98 % of control (endpoint: mean survival time, dose: 150.0 mg/kg/injection, schedule: Q01DX009 (ip), vehicle: saline).
